Columns and labels:
Assay type in all cases: cell-based, Escherichia coli
E. coli EKO-35 = assay: microbe, parasite or virus in culture; details: for Fold change of MICs: EKO-35 compared to EKO-35 (reference); for Minimum inhibitory concentration (MIC), EKO-35: Table 10, without pore; for Minimum inhibitory concentration (MIC), EKO-35 / Minimum Inhibitory Concentration, EKO-35: technical duplicate; for Minimum Inhibitory Concentration, EKO-35: Table 13A, non-porinated
In short: (§1)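 Steps: LB overnight culture at 37 °C; resuspension in PBS to OD600 ~1.0; 1/2000 dilution in MHB II; addition to 2-fold serial compound dilutions (duplicate); 18 h shaking incubation at 37 °C; OD600 read, with pre-read subtracted.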

E. coli ΔtolC = assay: microbe, parasite or virus in culture; details: technical duplicate; for Minimum inhibitory concentration (MIC), ΔtolC: Table 10, without pore; for Minimum Inhibitory Concentration, ΔtolC: Table 13A, non-porinated
In short: as §1

[1] = tested on: wild-type E. coli K-12 str. BW25113; assay: microbe, parasite or virus in culture; details: technical duplicate; for Minimum inhibitory concentration (MIC), K-12: Table 10, without pore; for Minimum Inhibitory Concentration, K-12: Table 13A, non-porinated
In short: as §1

EKO-35 araC::acrBD408A = assay: MIC susceptibility profiling, efflux platform; details: for Fold change of MICs: EKO-35 araC::acrBD408A compared to EKO-35; for Minimum Inhibitory Concentration, EKO-35 araC::acrBD408A: Table 13B, non-porinated, technical duplicate
In short: as §1

EKO-35 araC::acrB = assay: MIC susceptibility profiling, efflux platform; details: for Fold change of MICs: EKO-35 araC::acrB compared to EKO-35; for Minimum Inhibitory Concentration, EKO-35 araC::acrB: Table 13A, non-porinated, technical duplicate
In short: as §1

EKO-35 araC::acrD = assay: MIC susceptibility profiling, efflux platform; details: for Fold change of MICs: EKO-35 araC::acrD compared to EKO-35; for Minimum Inhibitory Concentration, EKO-35 araC::acrD: Table 13A, non-porinated, technical duplicate
In short: as §1

EKO-35 araC::acrEF = assay: MIC susceptibility profiling, efflux platform; details: for Fold change of MICs: EKO-35 araC::acrEF compared to EKO-35; for Minimum Inhibitory Concentration, EKO-35 araC::acrEF: Table 13A, non-porinated, technical duplicate
In short: as §1

EKO-35 araC::emrAB = assay: MIC susceptibility profiling, efflux platform; details: for Fold change of MICs: EKO-35 araC::emrAB compared to EKO-35; for Minimum Inhibitory Concentration, EKO-35 araC::emrAB: Table 13B, non-porinated, technical duplicate
In short: as §1

EKO-35 araC::emrKY = assay: MIC susceptibility profiling, efflux platform; details: for Fold change of MICs: EKO-35 araC::emrKY compared to EKO-35; for Minimum Inhibitory Concentration, EKO-35 araC::emrKY: Table 13B, non-porinated, technical duplicate
In short: as §1

EKO-35 araC::macAB = assay: MIC susceptibility profiling, efflux platform; details: for Fold change of MICs: EKO-35 araC::macAB compared to EKO-35; for Minimum Inhibitory Concentration, EKO-35 araC::macAB: Table 13B, non-porinated, technical duplicate
In short: as §1

EKO-35 araC::mdtBC = assay: MIC susceptibility profiling, efflux platform; details: for Fold change of MICs: EKO-35 araC::mdtBC compared to EKO-35; for Minimum Inhibitory Concentration, EKO-35 araC::mdtBC: Table 13B, non-porinated, technical duplicate
In short: as §1

EKO-35 araC::mdtEF = assay: MIC susceptibility profiling, efflux platform; details: for Fold change of MICs: EKO-35 araC::mdtEF compared to EKO-35; for Minimum Inhibitory Concentration, EKO-35 araC::mdtEF: Table 13A, non-porinated, technical duplicate
In short: as §1

[2] = tested on: EKO-35 araC::mexCD (MexCD from P. aeruginosa); assay: MIC susceptibility profiling, efflux platform; details: for Fold change of MICs: EKO-35 araC::mexCD compared to EKO-35; for Minimum Inhibitory Concentration, EKO-35 araC::mexCD: Table 13B, non-porinated, technical duplicate
In short: as §1

wild-type (WT) K-12-Pore = assay: microbe, parasite or virus in culture; details: technical duplicate; for Minimum inhibitory concentration (MIC), Pore K-12: Table 10, with pore; for Minimum inhibitory concentration, K-12 (WT)-Pore: Table 14A, porinated
In short: (§2)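 MIC values come from background-corrected OD600 readings (pre-incubation OD subtracted) after 18 h at 37 °C and 900 rpm in MHB II. Compounds were tested in duplicate as 2-fold dilutions. The inoculum came from 18 h LB cultures adjusted to OD600 ~1.0 and diluted 1/2000, and the pore-bearing strains were vancomycin-checked beforehand.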

ΔtolC-Pore = assay: microbe, parasite or virus in culture; details: technical duplicate; for Minimum inhibitory concentration (MIC), Pore ΔtolC: Table 10, with pore; for Minimum inhibitory concentration, ΔtolC-Pore: Table 14A, porinated
In short: as §2

EKO-35-Pore = assay: MIC susceptibility profiling, porinated strain; details: for Fold changes of MICs: EKO-35-Pore compared to EKO-35-Pore (reference); for Minimum inhibitory concentration (MIC), Pore EKO-35: Table 10, with pore; for Minimum inhibitory concentration (MIC), Pore EKO-35 / Minimum inhibitory concentration, EKO-35-Pore: technical duplicate; for Minimum inhibitory concentration, EKO-35-Pore: Table 14A, porinated
In short: as §2

EKO-35 araC::acrB Pore = assay: MIC susceptibility profiling, porinated efflux platform; details: for Fold changes of MICs: EKO-35 araC::acr-B Pore compared to EKO-35-Pore; for Minimum inhibitory concentration, EKO-35 araC::acrB Pore: Table 14A, porinated, technical duplicate
In short: as §2

EKO-35 araC::mdtBC Pore = assay: as above; details: for Fold changes of MICs: EKO-35 araC::mdtBC Pore compared to EKO-35-Pore; for Minimum inhibitory concentration: EKO-35 araC::mdtBC Pore, technical duplicate
In short: as §2

EKO-35 araC::mdtEF Pore = assay: as above; details: for Fold changes of MICs: EKO-35 araC::mdtEF Pore compared to EKO-35-Pore; for Minimum inhibitory concentration, EKO-35 araC::mdtEF Pore: Table 14A, porinated, technical duplicate
In short: as §2

| Structure (SMILES) | Fold change of MICs (E. coli EKO-35) [fold] | Minimum inhibitory concentration (MIC), EKO-35 (E. coli EKO-35) [µg/mL] | Minimum Inhibitory Concentration, EKO-35 (E. coli EKO-35) [µg/mL] | Minimum inhibitory concentration (MIC), ΔtolC (E. coli ΔtolC) [µg/mL] | Minimum Inhibitory Concentration, ΔtolC (E. coli ΔtolC) [µg/mL] | Minimum inhibitory concentration (MIC), K-12 [1] [µg/mL] | Minimum Inhibitory Concentration, K-12 [1] [µg/mL] | Fold change of MICs (EKO-35 araC::acrBD408A) [fold] | Minimum Inhibitory Concentration, EKO-35 araC::acrBD408A (EKO-35 araC::acrBD408A) [µg/mL] | Fold change of MICs (EKO-35 araC::acrB) [fold] | Minimum Inhibitory Concentration, EKO-35 araC::acrB (EKO-35 araC::acrB) [µg/mL] | Fold change of MICs (EKO-35 araC::acrD) [fold] | Minimum Inhibitory Concentration, EKO-35 araC::acrD (EKO-35 araC::acrD) [µg/mL] | Fold change of MICs (EKO-35 araC::acrEF) [fold] | Minimum Inhibitory Concentration, EKO-35 araC::acrEF (EKO-35 araC::acrEF) [µg/mL] | Fold change of MICs (EKO-35 araC::emrAB) [fold] | Minimum Inhibitory Concentration, EKO-35 araC::emrAB (EKO-35 araC::emrAB) [µg/mL] | Fold change of MICs (EKO-35 araC::emrKY) [fold] | Minimum Inhibitory Concentration, EKO-35 araC::emrKY (EKO-35 araC::emrKY) [µg/mL] | Fold change of MICs (EKO-35 araC::macAB) [fold] | further results |
| --- | --- | --- | --- | --- | --- | --- | --- | --- | --- | --- | --- | --- | --- | --- | --- | --- | --- | --- | --- | --- | --- |
| Cn1cc(Br)c(-c2cccc(NC(=O)Nc3ccc(OC(F)(F)F)cc3)c2)n1 [compound 14] | 1 | 320 | 320 | 2.5 | 2.5 | 320 | 320 | 1 | 320 | 1 | 320 | 1 | 320 | 1 | 320 | 1 | 320 | 1 | 320 | 1 | Minimum Inhibitory Concentration, EKO-35 araC::macAB (EKO-35 araC::macAB): 320 µg/mL; Fold change of MICs (EKO-35 araC::mdtBC): 1 fold; Minimum Inhibitory Concentration, EKO-35 araC::mdtBC (EKO-35 araC::mdtBC): 320 µg/mL; Fold change of MICs (EKO-35 araC::mdtEF): 1 fold; Minimum Inhibitory Concentration, EKO-35 araC::mdtEF (EKO-35 araC::mdtEF): 320 µg/mL; Fold change of MICs [2]: 1 fold; Minimum Inhibitory Concentration, EKO-35 araC::mexCD [2]: 320 µg/mL; Minimum inhibitory concentration (MIC), Pore K-12 (wild-type (WT) K-12-Pore): 320 µg/mL; Minimum inhibitory concentration, K-12 (WT)-Pore (wild-type (WT) K-12-Pore): 320 µg/mL; Minimum inhibitory concentration (MIC), Pore ΔtolC (ΔtolC-Pore): 1.25 µg/mL; Minimum inhibitory concentration, ΔtolC-Pore (ΔtolC-Pore): 1.25 µg/mL; Fold changes of MICs (EKO-35-Pore): 1 fold; Minimum inhibitory concentration (MIC), Pore EKO-35 (EKO-35-Pore): 320 µg/mL; Minimum inhibitory concentration, EKO-35-Pore (EKO-35-Pore): 320 µg/mL; Fold changes of MICs (EKO-35 araC::acrB Pore): 1 fold; Minimum inhibitory concentration, EKO-35 araC::acrB Pore (EKO-35 araC::acrB Pore): 320 µg/mL; Fold changes of MICs (EKO-35 araC::mdtBC Pore): 1 fold; Minimum inhibitory concentration (EKO-35 araC::mdtBC Pore): 320 µg/mL; Fold changes of MICs (EKO-35 araC::mdtEF Pore): 1 fold; Minimum inhibitory concentration, EKO-35 araC::mdtEF Pore (EKO-35 araC::mdtEF Pore): 320 µg/mL |
| N#CC(=NNc1ccc(F)c(Cl)c1)C(=O)c1ccc(Cl)cc1 [compound 15] | 1 | 320 | 320 | 1.25 | 1.25 | 320 | 320 | 1 | 320 | 1 | 320 | 1 | 320 | 1 | 320 | 1 | 320 | 1 | 320 | 1 | Minimum Inhibitory Concentration, EKO-35 araC::macAB (EKO-35 araC::macAB): 320 µg/mL; Fold change of MICs (EKO-35 araC::mdtBC): 1 fold; Minimum Inhibitory Concentration, EKO-35 araC::mdtBC (EKO-35 araC::mdtBC): 320 µg/mL; Fold change of MICs (EKO-35 araC::mdtEF): 1 fold; Minimum Inhibitory Concentration, EKO-35 araC::mdtEF (EKO-35 araC::mdtEF): 320 µg/mL; Fold change of MICs [2]: 1 fold; Minimum Inhibitory Concentration, EKO-35 araC::mexCD [2]: 320 µg/mL; Minimum inhibitory concentration (MIC), Pore K-12 (wild-type (WT) K-12-Pore): 320 µg/mL; Minimum inhibitory concentration, K-12 (WT)-Pore (wild-type (WT) K-12-Pore): 320 µg/mL; Minimum inhibitory concentration (MIC), Pore ΔtolC (ΔtolC-Pore): 0.625 µg/mL; Minimum inhibitory concentration, ΔtolC-Pore (ΔtolC-Pore): 0.625 µg/mL; Fold changes of MICs (EKO-35-Pore): 1 fold; Minimum inhibitory concentration (MIC), Pore EKO-35 (EKO-35-Pore): 320 µg/mL; Minimum inhibitory concentration, EKO-35-Pore (EKO-35-Pore): 320 µg/mL; Fold changes of MICs (EKO-35 araC::acrB Pore): 1 fold; Minimum inhibitory concentration, EKO-35 araC::acrB Pore (EKO-35 araC::acrB Pore): 320 µg/mL; Fold changes of MICs (EKO-35 araC::mdtBC Pore): 1 fold; Minimum inhibitory concentration (EKO-35 araC::mdtBC Pore): 320 µg/mL; Fold changes of MICs (EKO-35 araC::mdtEF Pore): 1 fold; Minimum inhibitory concentration, EKO-35 araC::mdtEF Pore (EKO-35 araC::mdtEF Pore): 320 µg/mL |
